We go through 5 compounds from ChEMBL document CHEMBL6153034, “Synthesis of dolutegravir derivatives modified by 1,2,3-triazole structure and their anti-inflammatory activity in LPS-induced BV2 cells” (Bioorg Med Chem Lett, 2025).

Each structure is given as a SMILES string.

One data set relates to RAW264.7. The data set can be described thus: Antiinflammatory activity in LPS-induced mouse RAW264.7 cells assessed as inhibition of NO production. The format is functional, cell-based.
For data set [1], the system named is Human immunodeficiency virus 1. As to the kind of experiment: Antiviral activity against HIV-1. The format is functional, organism-based.
The subject of data set [2] is BV-2. The data set can be described thus: Antiinflammatory activity in LPS induced mouse BV-2 cells assessed as NO production at 10 uM by Griess reagent based assay relative to control. For orientation: Griess reagent forms a coloured azo dye with nitrite.
The nature of data set [3]: Cytotoxicity against mouse BV-2 cells assessed as cell viability at 10 uM by MTT assay relative to control. The data set is classed as toxicity, cell-based. The following applies: read-out: Activity.
The nature of data set [4]: Cytotoxicity against mouse BV-2 cells assessed as cell viability at 1 uM by MTT assay relative to control. The data set is classed as toxicity, cell-based. The following applies: read-out: Activity. Background: Tetrazolium assays rely on reduction of a dye to a coloured formazan, in cell work by metabolically active cells.
The test system of data set [5] is BV-2. The data set can be described thus: Antiinflammatory activity in LPS induced mouse BV-2 cells assessed as NO production at 1 uM by Griess reagent based assay relative to control.
Data set [6] concerns BV-2. As to the kind of experiment: Antiinflammatory activity in LPS induced mouse BV-2 cells assessed as inhibition of NO production by Griess reagent based assay. The format is functional, cell-based.
Data set [7] deals with BV-2. The data set can be described thus: Antiinflammatory activity in LPS-induced mouse BV-2 cells assessed as reduction in NO release relative to control. The format is functional. Set-up: scale not given: the % may be the effect or the level left.
The test system of data set [8] is Human immunodeficiency virus 1. The data set can be described thus: Antiviral activity against HIV-1 infected in human C8166 cells assessed as inhibition of virus-induced cytopathic effect. The data set is classed as functional, organism-based. The following applies: Human immunodeficiency virus 1, C8166.

As a reminder, the IC50 is the midpoint of a concentration-inhibition curve. The EC50 is the midpoint of the concentration-response curve. For the compound `Cc1ccc([C@@](C)(O)CC[C@@H](O)C(C)(C)O)cc1`, the IC50 in the data set with RAW264.7 was below 10 µM. In addition, the EC50 in [1] is below 10 µM.
Regarding `COc1c2n(cc(C(=O)Nc3cccc(-c4cn(-c5ccccc5I)nn4)c3)c1=O)C[C@@H]1OCC[C@@H](C)N1C2=O`, the level, % of control at 10 µM in the data set with BV-2 [2] came to 52.1%. Also, the viability at 10 µM in [3] turned out to be 89.2%. In data set [4], the viability at 1 µM was 96.4%. The level, % of control at 1 µM in the data set with BV-2 [5] was 78.4%. Besides, in the data set with BV-2 [6], the IC50 worked out at 5.03 µM.
`COc1c2n(cc(C(=O)Nc3cccc(-c4cn(-c5c(C)cc(C)cc5C)nn4)c3)c1=O)C[C@@H]1OCC[C@@H](C)N1C2=O`: the level, % of control at 10 µM with BV-2 [2] came out at 46%. Also, the viability at 10 µM in [3] amounted to 96.7%. Also, the viability at 1 µM in data set [4] came to 102%. In addition, the level, % of control at 1 µM in the data set with BV-2 [5] turned out to be 85.1%. The IC50 in the data set with BV-2 [6] is 9.68 µM.
With `CC(=O)Oc1ccc2c(=O)c(-c3ccc(-n4cc(-c5ccc6c(c5)C(=O)N5CCCC5C(=O)N6)nn4)cc3)coc2c1` (stereo not given), the Activity with BV-2 [7] is on record as 64.28%.
For the compound `C=CC(C)(C)c1cc2cc([C@@H](O)[C@@H](O)C(C)(C)O)c(O)cc2oc1=O`, in data set [8], the EC50 was below 10 µM. The IC50 in the data set on RAW264.7 is below 10 µM.
